Laboratory results published in a melting point compilation (Tetko et al.; mined from patent text by program, amines drawn as free bases though some values may be those of a salt).

Row | Compound | melting point
1 | O=C(O)c1[nH]c2cc(Br)c(Cl)cc2c1-c1ccccc1 | 241 to 242 °C
2 | CCCCOc1cc(/C=C(\OCC)C(=O)O)ccc1OCCc1ccc(NS(=O)(=O)CCCC)cc1 | 164 °C
3 | c1ccn(Nc2ccncc2)c1 | 150 °C
4 | CC(=O)OC1C=C(C)C(=O)CC(C)(C)C1OC(=O)c1ccc(Cl)cc1 (stereo not drawn) | 86 to 87 °C
5 | O=c1c2cc(F)ccc2nc(CNCc2ccccc2F)n1-c1ccccc1Cl | 140 °C
6 | O=C1N(c2ccc(I)cc2)CCCC1(Cl)Cl | 153 to 155 °C
7 | CN(C)C=Nc1sc([N+](=O)[O-])cc1C#N | 230 °C
8 | CCc1cc(=O)n2c3c(cc(C(O)(C(F)(F)F)C(F)(F)F)cc13)CCC2 | 209 to 210 °C
9 | CC(C)(C)C(=O)OC(COc1cccc2[nH]ccc12)CN1CCC(COc2ccccc2)CC1 (stereo not drawn) | 103 to 105 °C
10 | CN(c1nc(Nc2ccc(O)cc2)nc(NC2CCCCCC2)n1)C1CCNCC1 | 130 °C
11 | N#Cc1c(N)c(C#N)c(-c2ccccc2)c2c1CCC2 | 148 to 149 °C
12 | COCCOc1ccc(CCCOC(=O)NS(=O)(=O)NCCC(C)C)c(Oc2ncc(C(F)(F)F)cc2Cl)c1 | 123 to 124 °C
13 | O=C(O)c1c(Oc2ccc(F)cc2)cccc1Oc1ccc2c(c1)OCO2 | 164 to 166 °C
14 | CCOC(=O)CNC(=O)C=C(c1ccc(Cl)cc1)c1ccc(Cl)cc1 | 123 to 124 °C
15 | CN1CCN(CC(=O)N2c3ccccc3N(C)S(=O)(=O)c3ccccc32)CC1 | 143 to 144 °C
16 | CCOC(=O)c1c(N2CCN(C=O)CC2)c2cc(C)ccc2n(Cc2ccccc2)c1=O | 196 °C
17 | COc1ccc(COc2ccc(-c3ccc(C(=O)O)c(=O)[nH]3)cc2OC)cc1OC | 217 to 218 °C
18 | CSC(=NC#N)N(C)N | 69 to 71 °C
19 | COC(=O)N(Oc1cc(Cl)cc(Cl)c1)C(=O)N(C)C(C)C | 67 to 69 °C
20 | Cc1cc(C)cc(COC(=O)C(NC(=O)OC(C)(C)C)C(c2ccccc2)c2ccccc2)c1 (stereo not drawn) | 123 °C
21 | CN(C)c1ccc2[nH]c(=O)oc(=O)c2c1 | 258 °C
22 | Cc1ccc(CCCCCCCCCCC(Cl)(Cl)C(=O)O)cc1 | 58 to 59 °C
23 | C[C@@H](n1ccnc1)C(O)(c1ccc(Cl)cc1)c1ccc(Cl)cc1 | 159 to 161 °C
24 | CONS(=O)(=O)c1ccccc1Cl | 92.5 to 94 °C
25 | COc1ccc(C=Cc2cc(I)c(OC)c(OC)c2)cc1O | 92 to 94 °C
26 | COc1cc2c(CCN)c(C)[nH]c2c(Cl)c1Cl | 184 to 186 °C
27 | CCCCCN(C(=O)Nc1ccc(C(=O)O)cc1F)c1ccc2c(c1)C(C)(C)CCC2(C)C | 151 to 157 °C

Row | Compound | melting point
28 | CS(=O)(=O)c1ccc(-c2sc(Br)cc2-c2ccc(F)cc2)cc1 | 141 to 145 °C
29 | COc1cc(N)ccc1CN1C(=O)C(C)(c2ccccc2Cl)c2cc(Cl)ccc21 (stereo not drawn) | 232 °C
30 | C=CC[C@H]1C(=O)N(S(=O)(=O)c2cc3ccccc3s2)[C@@H]2CCN(C(=O)OCc3ccccc3)[C@H]21 (relative stereo) | 146 °C
31 | CCn1c(=O)c2c(nc(/C=C/c3ccc(F)c(Br)c3)n2C)n(CC)c1=O | 218 to 219 °C
32 | CC(=O)CC(=O)NC1CCC(C)CC1 (stereo not drawn) | 111 °C
33 | O=[N+]([O-])c1ccc2[nH]cc(C3=CCC4(CC3)OCCO4)c2c1 | 175 to 177 °C
34 | O=P1(O)Oc2ccccc2-c2cc(F)ccc21 | 240 °C
35 | CCCn1c(=O)n(Cc2ccccc2)c(=O)c2c(Cl)cc(Cl)cc21 | 90 to 93 °C
36 | Cc1cc2c(cc1Cl)C(Br)(c1ccccc1Cl)C(=O)N2 (stereo not drawn) | 109 to 111 °C
37 | CC(C)(C)OC(=O)CC1(SN=O)C2CC3CC(C2)CC1C3 (stereo not drawn) | 85 to 87 °C
38 | O=c1c(Br)c(N2CCOCC2)oc2ccccc12 | 145 to 146 °C
39 | O=C(O)CCC(Cc1ccc(Cl)c(Cl)c1)(C(=O)C=Cc1ccc(Cl)cc1)c1ccccc1 (stereo not drawn) | 155 to 156 °C
40 | O=C1C(=c2[nH]c(=c3[nH]c(=C4C(=O)N(c5ccccc5)C(=O)N(c5ccccc5)C4=O)c4ccccc34)c3ccccc23)C(=O)N(c2ccccc2)C(=O)N1c1ccccc1 | > 300 °C
41 | CC(C)(C#N)c1cc(C(=O)c2cccnc2)cc(C(C)(C)C#N)c1 | 87 to 89 °C
42 | C=CC(=O)NC(Cc1ccccc1)C(=O)O (stereo not drawn) | 136 to 138 °C
43 | Nc1c(Br)cc(Br)c(CCC(=O)O)c1Br | 195 to 197 °C
44 | N#Cc1ccsc1-c1ccc(CBr)cc1 | 80 °C
45 | O=C(O)c1cc2sccc2nc1C(=O)O | > 380 °C
46 | CCOC(=O)C(CC)=C(C)NC(=O)Nc1cc(C(=O)OC(C)C)c(Cl)cc1F | 112 to 115 °C
47 | NC(=O)c1ccc(OC(F)(F)C(F)(F)Br)cc1 | 150 to 152 °C
48 | COc1cc(C)ccc1OCCCN1CCC(C(O)(c2ccc(F)cc2)c2ccc(F)cc2)CC1 | 121 to 122 °C
49 | CCNC(=O)C1(CCCc2ccccc2)c2ccccc2Oc2ccccc21 | 130 °C
50 | CCCCOCCOc1ccc(-c2ccc3c(c2)C=C(C(=O)Nc2ccc(/C(Cc4nccn4CCC)=N/O)cc2)CCN3CC(C)C)cc1 | 154 °C
51 | O=C(O)c1ccc(CC2(C(=O)O)CCCN2C(=O)Nc2cc(Cl)cc(Cl)c2)cc1 (stereo not drawn) | 145 °C
52 | CCOP(=O)(Cc1ccc(NC(=O)/C=C/c2cnoc2-c2ccccc2)cc1)OCC | 173 to 174 °C
53 | Oc1ccc2c(c1)COc1c-2cc2ccc(O)cc2c1-c1cccc(F)c1 | 225 to 227 °C
54 | CCCCCCc1ccc(-n2c(-c3ccc(C)cc3)cc(OC)c2-c2ccc(C)cc2)cc1 | 128 to 130 °C

Continued, values first:

Row | melting point | Compound
55 | 152 to 154 °C | COc1ccc(-c2nnn(-c3ccc(C(F)(F)F)cc3Cl)c2CBr)cc1
56 | 38 to 40 °C | C#CCCCOc1c(C)cc(-c2nc(C)no2)cc1C
57 | > 300 °C | CCCCNc1nc(=O)c2c(C)nn3c2n1CC(C)=C3c1ccccc1
58 | 204 to 205 °C | CNc1nc(Br)cc(Sc2ccc([N+](=O)[O-])cc2)n1
59 | 233 to 237 °C | Cn1c(-c2ccc(-n3cnc4ccccc43)cc2)cnc1[C@H](Cc1ccccn1)N(C=O)c1cc2ccccc2[nH]1
60 | 224 to 225 °C | CC1(C)C(=O)Nc2cccc(O)c21
61 | 137 to 141 °C | CN1Cc2ccccc2C(=O)c2cc(CC(=O)NO)ccc21
62 | 220 to 223 °C | c1ccc2c(c1)CN(NC1=NCCO1)C2
63 | 201 to 203 °C | CC(=O)NC[C@H]1CN(c2ccc3c(c2)N(C(=O)OCc2ccccc2)[C@H](C)C3)C(=O)O1
64 | 334 °C | NS(=O)(=O)c1ccc(-c2cn(-c3nc(-c4ccc(Cl)c(Cl)c4)cc(C(F)(F)F)n3)cn2)cc1
65 | 199 to 201 °C | O=C(O)c1cc2ccc(OCc3ccccc3)cc2o1
66 | 111 to 113 °C | Cn1nc(-c2c(F)cccc2Cl)nc1-c1ccc(CO)c(Cl)c1
67 | 147 to 148 °C | Oc1cccc(Sc2ncccc2O)c1
68 | 229 to 230 °C | CN1CCN(c2ccc(Nc3ncc4ccc(-c5cccc(CN(C)S(C)(=O)=O)c5)n4n3)cc2)CC1
69 | 69 to 70 °C | CCCCCCSc1c(O)cc(C)oc1=O
70 | 99 to 100 °C | CCOC(=O)NC(=S)Nc1ncc(C(F)(F)F)cc1F
71 | 282 to 283 °C | CC(C)(C)OC(=O)Nc1ccccc1NC(=O)c1ccc(CBr)cc1
72 | 274 to 277 °C | Cc1c(F)c(F)cc2c(=O)c(C(=O)O)cn(-c3nc(N)c(F)cc3F)c12
73 | 122 to 125 °C | COc1cc(Cl)c2c(=O)c(N3CCCCC3)coc2c1
74 | 255 to 258 °C | COc1ncc(Nc2nc(N3CCOCC3)nc(-n3c(C(F)F)nc4c(OC)cccc43)n2)cn1
75 | 178 to 179 °C | N#CCc1nn(-c2ccccn2)c(N)c1C#N
76 | 252 to 255 °C | Nc1cc2c(Nc3ccc(F)c(C(F)(F)F)c3)ncnc2cn1
77 | 210 °C | Fc1cccc(Cl)c1-c1c(Cl)cc(-n2cncn2)nc1Cl
78 | 96 to 97 °C | COC(=O)c1ccc(Cl)cc1NC(=O)Cc1ccsc1
79 | 76 to 78 °C | COCc1cccc2c1OCCC(C(=O)OC)=C2

Row | melting point | Compound
80 | 151 to 153 °C | CC1(C)CN=C2N(C1)c1ccc(C(=O)O)cc1C21OCCCO1
81 | 208 to 209 °C | O=C(OCC1OC(n2cc(F)c(=O)[nH]c2=O)C(OC(=O)c2ccccc2)C1OC(=O)c1ccccc1)c1ccccc1 (stereo not drawn)
82 | 114 to 118 °C | O=C1c2ccccc2C(=O)N1CC1CCOC1 (stereo not drawn)
83 | 140 °C | CNc1ncnc2c1ncn2C1OC(CO)C(O)C1F (stereo not drawn)
84 | 88 to 90 °C | CCOC(=O)C1=C(C=O)NC(CF)=C(C(=O)OCC)C1c1cccc([N+](=O)[O-])c1 (stereo not drawn)
85 | 198 to 203 °C | CC12CCC(O)CC1=CCC1C2CCC2(C)C(=C(F)CO)CCC12 (stereo not drawn)
86 | 151 °C | CCc1nc(-c2ncn3c2CCCc2ccccc2-3)no1
87 | 96.5 to 97 °C | O=C1C=CC(=O)N1CO
88 | 178 to 179 °C | COC(=O)c1ccnc(Nc2cc(OC)cc(C(F)(F)F)c2)c1
89 | 184 to 187 °C | CNC(=N)NC(=O)c1nc(Cl)c(NC2CCCC2)nc1N
90 | 72.5 to 74.5 °C | COC(=O)C(=O)c1nccn1Cc1cccs1
91 | 174 to 176 °C | CC(C)(C)OC(=O)N1CCc2c(n(CCO)c3ccc(Cl)c(Cl)c23)CC1
92 | > 350 °C | C[C@@H](Nc1ncnc2[nH]c(-c3ccc(C(=O)O)cc3)cc12)c1ccccc1
93 | 100 to 102 °C | CCCC[C@H](CO)C(=O)NOCc1ccccc1
94 | 185 to 186 °C | COc1ccc2nc3c(cc2c1)c(N)nn3C
95 | 107 to 110 °C | CC(=O)OC1(Cc2ccccn2)C(=O)N(N2CCOCC2)c2ccccc21 (stereo not drawn)
96 | 85.5 to 85.9 °C | COc1ccc2c(c1)CCC1C2CCC2(C)C(NCc3cccs3)CCC12 (stereo not drawn)
97 | 93 to 94 °C | CCCCCCOc1ccc(-n2cc(C(=O)OCC)cn2)cc1C#N
98 | 181 to 182 °C | COc1cc(OC)cc(-c2cc(=O)c3ccc(OCC4CO4)cc3o2)c1 (stereo not drawn)
99 | 180 °C | CN1CCOC(C2=C(C#N)C(c3cccc(C#N)c3Br)c3c[nH]nc3N2)C1 (stereo not drawn)
100 | 170 to 180 °C | Cn1c(C=Cc2ccccc2)cnc1[N+](=O)[O-]
101 | 238 to 239 °C | CC(=O)Nc1ccc2[nH]c(C=CC(=O)O)cc2c1
102 | 320 to 326 °C | O=S1(=O)N=C(NC2CCC2)Nc2cc(Cl)c(Cl)cc21
103 | 101 to 102 °C | OC1Cn2cccc2Sc2ccccc21 (stereo not drawn)
